Literature values, collected in US9206171B2, “6-{2 -[1-(6-methyl-3-pyridazinyl)-4-piperidinyl]ethoxy}-3-ethoxy-1,2-benzisoxazole bis-dihydrogenphosphate salt (1:2)” (Biota Scientific Management Pty Ltd, priority 2008, dated 2015).

Tests used:
[1] = facile endogenous cleavage of the ester moiety, regardless of excipient
[2] = patients using oral contraceptive formulations

Row | Structure (SMILES) | bioavailability (in words) [1] | aqueous solubility (in words) | interaction with oral contraceptive formulations [2]
1 | CCOC(=O)c1ccc(OCCC2CCN(c3ccc(C)nn3)CC2)cc1 [Pirodavir, 4-[2-[1-(6-methyl-3-pyridazinyl)-4-piperidinyl]-ethoxy]benzoate] | poor bioavailability | poor aqueous solubility | 
2 | Cc1cc(CCCOc2c(C)cc(-c3noc(C(F)(F)F)n3)cc2C)on1 [Pleconaril] |  |  | interact adversely
